# From US20100041669A1, “4-(HETEROCYCLYL)ALKYL-N-(ARYLSULFONYL)INDOLE COMPOUNDS AND THEIR USE AS 5-HT6 LIGANDS” (priority 2007, published 2010)
# Structures can show the parent of a compound that is named as a salt.
# System: not given
# Experiment: not given
# Conditions: Pouzet et al. 2002; cited from earlier work
row,SMILES,activity in animal tests related to positive or negative symptoms of schizophrenia
1,"COc1ccc(NS(=O)(=O)c2sc3ccc(Cl)cc3c2C)cc1N1CCNCC1 [SB-271046, 5-Chloro-N-(4-methoxy-3-piperazin-1-ylphenyl)-3-methyl-2-benzothiophenesulfonamide]",inactive

# Target: T1, human 5-HT6 receptor (Homo sapiens, UniProt P50406)
# T1 construct: expressed in transfected cells; host or cells: HEK293
# Experiment: Binding assay for human 5-HT6 receptor ([3H]LSD radioligand)
# Conditions: human recombinant receptor, [3H]LSD 1.5 nM, 60 minutes at 37° C.; read-out: Radiogland binding data at 5-HT6 R (h) Ki
# Protocol: Binding Assay for Human 5-HT6 Receptor
# Receptor source: Human recombinant expressed in FEK293 cells
# Radioligand: [^3H]LSD (60-80 Ci/mmol)
# Final ligand concentration —[1.5 nM]
# Non-specific determinant: Methiothepin mesylate —[0.1 μM]
# Reference compound: Methiothepin mesylate
# Positive control: Methiothepin mesylate
# Reactions were carried out in 50 μM TRIS-HCl (pH 7.4) containing 10 μM MgCl2, 0.5 mM EDTA for 60 minutes at 37° C. The reaction was terminated by rapid vacuum filtration onto glass fiber filters. Radioactivity trapped onto the filters was determined and compared to control values in order to ascertain any interactions of test compound(s) with the cloned serotonin 5-HT6 binding site.
# T1 sequence (P50406 whole entry): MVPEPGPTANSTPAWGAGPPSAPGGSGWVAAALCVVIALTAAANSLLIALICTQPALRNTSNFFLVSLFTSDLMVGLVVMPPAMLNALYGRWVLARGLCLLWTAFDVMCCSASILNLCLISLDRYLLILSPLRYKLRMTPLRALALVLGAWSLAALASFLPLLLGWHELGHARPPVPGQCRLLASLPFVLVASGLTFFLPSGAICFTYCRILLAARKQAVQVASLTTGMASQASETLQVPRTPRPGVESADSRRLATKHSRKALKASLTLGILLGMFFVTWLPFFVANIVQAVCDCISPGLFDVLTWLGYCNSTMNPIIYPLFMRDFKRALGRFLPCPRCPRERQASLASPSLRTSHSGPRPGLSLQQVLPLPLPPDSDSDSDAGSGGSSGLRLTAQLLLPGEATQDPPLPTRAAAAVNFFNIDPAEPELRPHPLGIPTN
row,SMILES,Ki
1,"CN1CCN(Cc2cccc3c2ccn3S(=O)(=O)c2cccc3ccccc23)CC1 [Compound 39, 1-Naphthylsulfonyl-4-(4-methylpiperazin-1-ylmethyl)-1H-indole]",4.82 nM
2,"CC(C)c1ccc(S(=O)(=O)n2cc(Cl)c3c(CN4CCN(C)CC4)cccc32)cc1 [Compound 28, 3-Chloro-1-[4-(1-methylethyl)benzenesulfonyl]-4-(4-methylpiperazin-1-ylmethyl)-1H-indole]",99.7 nM
3,"Cc1ccc(S(=O)(=O)n2ccc3c(CN4CCN(C)CC4)cccc32)cc1 [Compound 5, 1-(4-Methylbenzenesulfonyl)-4-(4-methylpiperazin-1-ylmethyl)-1H-indole]",7.92 nM
4,"CN1CCN(Cc2cccc3c2ccn3S(=O)(=O)c2cccc(Cl)c2)CC1 [Compound 41, 1-(3-chlorobenzenesulfonyl)-4-(4-methylpiperazin-1-ylmethyl)-1H-indole]",13.1 nM
5,"Cc1ccc(S(=O)(=O)n2cc(Cl)c3c(CN4CCN(C)CC4)cccc32)cc1 [Compound 29, 3-Chloro-1-(4-methylbenzenesulfonyl)-4-(4-methylpiperazin-1-ylmethyl)-1H-indole]",222 nM
6,"CN1CCN(Cc2cccc3c2c(Cl)cn3S(=O)(=O)c2ccccc2Br)CC1 [Compound 30, 3-Chloro-1-(2-bromobenzenesulfonyl)-4-(4-methylpiperazin-1-ylmethyl)-1H-indole]",90.7 nM
7,"CN1CCN(Cc2cccc3c2c(Cl)cn3S(=O)(=O)c2ccccc2)CC1 [Compound 27, 3-Chloro-1-benzenesulfonyl-4-(4-methylpiperazin-1-ylmethyl)-1H-indole]",53.6 nM
8,"O=S(=O)(c1ccccc1Br)n1ccc2c(CN3CCNCC3)cccc21 [Compound 36, 1-(2-Bromobenzenesulfonyl)-4-(piperazin-1-ylmethyl)-1H-indole dihydrochloride]",0.94 nM
9,"CN1CCN(Cc2cccc3c2c(Br)cn3S(=O)(=O)c2ccc(F)cc2)CC1 [Compound 22, 3-Bromo-1-(4-fluorobenzenesulfonyl)-4-(4-methylpiperazin-1-ylmethyl)-1H-indole]",122 nM
10,"CN1CCN(Cc2cccc3c2ccn3S(=O)(=O)c2ccccc2Br)CC1 [Compound 6, 1-(2-Bromobenzenesulfonyl)-4-(4-methylpiperazin-1-ylmethyl)-1H-indole]",1.43 nM
11,"COc1ccc(S(=O)(=O)n2ccc3c(CN4CCN(C)CC4)cccc32)c(Br)c1 [Compound 3, 1-(2-Bromo-4-methoxybenzenesulfonyl)-4-(4-methylpiperazin-1-ylmethyl)-1H-indole]",8.58 nM
12,"CN1CCN(Cc2cccc3c2c(Br)cn3S(=O)(=O)c2cccc3ccccc23)CC1 [Compound 25, 3-Bromo-1-(1-naphthylsulfonyl)-4-(4-methylpiperazin-1-ylmethyl)-1H-indole]",97.6 nM
13,"CN1CCN(Cc2cccc3c2c(Br)cn3S(=O)(=O)c2cccc(Cl)c2)CC1 [Compound 24, 3-Bromo-1-(3-chlorobenzenesulfonyl)-4-(4-methylpiperazin-1-ylmethyl)-1H-indole]",75.3 nM
14,"CC(C)c1ccc(S(=O)(=O)n2ccc3c(CN4CCN(C)CC4)cccc32)cc1 [Compound 4, 1-[4-(1-Methylethyl)benzenesulfonyl]-4-(4-methylpiperazin-1-ylmethyl)-1H-indole]",11.1 nM
15,"CN1CCN(Cc2cccc3c2ccn3S(=O)(=O)c2ccc(Br)cc2)CC1 [Compound 2, 1-(4-Bromobenzenesulfonyl)-4-(4-methylpiperazin-1-ylmethyl)-1H-indole]",23.4 nM
16,"CN1CCN(Cc2cccc3c2ccn3S(=O)(=O)c2ccccc2)CC1 [Compound 1, 1-Benzenesulfonyl-4-(4-methylpiperazin-1-ylmethyl)-1H-indole]",6.51 nM
17,"CN1CCN(Cc2cccc3c2c(Br)cn3S(=O)(=O)c2ccccc2)CC1 [Compound 18, 1-Benzenesulfonyl-3-bromo-4-(4-methylpiperazin-1-ylmethyl)-1H-indole]",30.2 nM
18,"O=S(=O)(c1ccccc1)n1ccc2c(CN3CCNCC3)cccc21 [Compound 37, 1-Benzenesulfonyl-4-(piperazin-1-ylmethyl)-1H-indole dihydrochloride]",7.84 nM
19,"CN1CCN(Cc2cccc3c2c(Cl)cn3S(=O)(=O)c2cccc3ccccc23)CC1 [Compound 34, 3-Chloro-1-(1-naphthylsulfonyl)-4-(4-methylpiperazin-1-ylmethyl)-1H-indole]",165 nM
20,"COc1ccc(S(=O)(=O)n2ccc3c(CN4CCN(C)CC4)cccc32)cc1 [Compound 8, 1-(4-Methoxybenzenesulfonyl)-4-(4-methylpiperazin-1-ylmethyl)-1H-indole]",29.1 nM
21,"CN1CCN(Cc2cccc3c2c(Cl)cn3S(=O)(=O)c2cccc(Cl)c2)CC1 [Compound 33, 3-Chloro-1-(3-chlorobenzenesulfonyl)-4-(4-methylpiperazin-1-ylmethyl)-1H-indole]",27.1 nM
22,"CC(C)c1ccc(S(=O)(=O)n2cc(Br)c3c(CN4CCN(C)CC4)cccc32)cc1 [Compound 20, 3-Bromo-1-[4-(1-Methylethyl)benzenesulfonyl]-4-(4-methylpiperazin-1-ylmethyl)-1H-indole]",278 nM
23,"CN1CCN(Cc2cccc3c2ccn3S(=O)(=O)c2ccc(F)cc2)CC1 [Compound 7, 1-(4-Fluorobenzenesulfonyl)-4-(4-methylpiperazin-1-ylmethyl)-1H-indole]",9.89 nM
24,"Cc1ccc(S(=O)(=O)n2ccc3c(CN4CCNCC4)cccc32)cc1 [Compound 38, 1-(4-Methylbenzenesulfonyl-4-(piperazin-1-ylmethyl)-1H-indoledihydrochloride]",10.7 nM

# System: 5-HT6 receptor
# Experiment: not given
# Conditions: literature; cited from earlier work
row,SMILES,affinity for the 5-HT6 receptor
1,CN(C)CCC=C1c2ccccc2CCc2ccccc21 [amitriptyline],high affinity
2,CN1CCN2c3ccccc3Cc3ccccc3C2C1 (stereo not drawn) [mianserin],high affinity
